From patent publication US10336697B2, “Spiro[cyclobutane-1,3′-indolin]-2′-one derivatives as bromodomain inhibitors” (Orion Corporation, priority 2015, dated 2019)

Biological target: Bet BRD4 full length bromo-domain protein (Homo sapiens, UniProt O60885)
Assay: Bet bromodomain TR-FRET assay (displacement of acetyl histone peptide)
Type: binding
Settings: Bet BRD4 full length bromodomain protein, 300 nM acetyl histone peptide substrate, read-out: IC50

Structure (SMILES) | IC50
O=C1Nc2c(NCc3cccnc3)cc(NS(=O)(=O)c3ccc(F)cc3F)cc2C12CCC2 [Compound 27, 2,4-difluoro-N-(2′-oxo-7′-((pyridin-3-ylmethyl)amino)spiro[cyclobutane-1,3′-indolin]-5′-yl)benzenesulfonamide] | < 600 nM
COc1ccc(S(=O)(=O)Nc2cc(OC3CCN(C)CC3)c3c(c2)C2(CCC2)C(=O)N3)c(OC)c1 [compound 187, 2,4-Dimethoxy-N-(7′-((1-methylpiperidin-4-yl)oxy)-2′-oxospiro[cyclobutane-1,3′-indolin]-5′-yl)benzenesulfonamide] | < 600 nM
COc1ccccc1S(=O)(=O)Nc1cc(OC2CCN(C)CC2F)c2c(c1)C1(CCC1)C(=O)N2 (single isomer, unassigned) [compound 191, N-(7′-((3-fluoro-1-methylpiperidin-4-yl)oxy)-2′-oxospiro[cyclobutane-1,3′-indolin]-5′-yl)-2-methoxybenzenesulfonamide] | < 600 nM
O=C1Nc2c(NCc3ccncc3)cc(NS(=O)(=O)c3ccc(F)cc3F)cc2C12CCC2 [Compound 23, 2,4-Difluoro-N-(2′-oxo-7′-((pyridin-4-ylmethyl)amino)spiro[cyclobutane-1,3′-indolin]-5′-yl)benzenesulfonamide] | < 600 nM
CN1CCC(NC(=O)c2cc(NS(=O)(=O)c3ccccc3F)cc3c2NC(=O)C32CCC2)CC1 [Compound 73, 5′-(2-Fluorophenylsulfonamido)-N-(1-methylpiperidin-4-yl)-2′-oxospiro[cyclobutane-1,3′-indoline]-7′-carboxamide] | < 600 nM
CC(c1ccccc1)c1cc(NS(=O)(=O)c2ccc(F)cc2F)cc2c1NC(=O)C21CCC1 (stereo not drawn) [Compound 126, 2,4-Difluoro-N-(2′-oxo-7′-(1-phenylethyl)spiro[cyclobutane-1,3′-indolin]-5′-yl)benzenesulfonamide] | 600 to 1000 nM
CCN1CCC(Nc2cc(NS(=O)(=O)c3ccc(F)cc3F)cc3c2NC(=O)C32CCC2)CC1 [Compound 24, N-(7′-((1-ethylpiperidin-4-yl)amino)-2′-oxospiro[cyclobutane-1,3′-indolin]-5′-yl)-2,4-difluorobenzenesulfonamide] | < 600 nM
COc1ccccc1S(=O)(=O)Nc1cc(OC2CCN(C)CC2)c2c(c1)C1(CCC1)C(=O)N2 [Compound-127, 2-methoxy-N-(7′-((1-methylpiperidin-4-yl)oxy)-2′-oxospiro[cyclobutane-1,3′-indolin]-5′-yl)benzenesulfonamide] | < 600 nM
O=C1Nc2c(CO)cc(NS(=O)(=O)c3ccc(F)cc3F)cc2C12CCC2 [Compound 69, 2,4-Difluoro-N-(7′-(hydroxymethyl)-2′-oxospiro[cyclobutane-1,3′-indolin]-5′-yl)benzenesulfonamide] | < 600 nM
COc1cc(F)ccc1S(=O)(=O)Nc1cc(OC2CCN(C)CC2)c2c(c1)C1(CCC1)C(=O)N2 [Compound-189, 4-Fluoro-2-methoxy-N-(7′-((1-methylpiperidin-4-yl)oxy)-2′-oxospiro[cyclobutane-1.3′-indolin]-5′-yl)benzenesulfonamide] | < 600 nM
COc1ccccc1S(=O)(=O)Nc1cc(NC2CCN(C)CC2F)c2c(c1)C1(CCC1)C(=O)N2 (stereo not drawn) [Compound 78, N-(7′-((3-fluoro-1-methylpiperidin-4-yl)amino)-2′-oxospiro [cyclobutane-1,3′-indolin]-5′-yl)-2-methoxy benzenesulfonamide] | < 600 nM
O=C1C=C(Nc2cc(NS(=O)(=O)c3ccc(F)cc3F)cc3c2NC(=O)C32CCC2)CCN1 [Compound 76, 2,4-Difluoro-N-(2′-oxo-7′-((6-oxo-1,2,3 ,6-tetrahydropyridin-4-yl)-amino)spiro[cyclobutane-1,3′-indolin]-5′-yl)benzenesulfonamide] | < 600 nM
O=C1Nc2c(-c3ccc4nc[nH]c4c3)cc(NS(=O)(=O)c3ccc(F)cc3F)cc2C12CCC2 [Compound 8, N-(7′-(1H-benzo[d]imidazol-6-yl)-2′-oxospiro[cyclobutane-1,3′-indolin]-5′-yl)-2,4-difluorobenzenesulfonamide] | 600 to 1000 nM
O=C(Nc1cc(NS(=O)(=O)c2ccc(F)cc2F)cc2c1NC(=O)C21CCC1)c1cccnc1 [Compound 44, N-(5′-(2,4-Difluorophenylsulfonamido)-2′-oxospiro[cyclobutane-1,3′-indolin]-7′-yl)nicotinamide] | > 1000 nM
CN1CCC(CNc2cc(NS(=O)(=O)c3ccc(F)cc3F)cc3c2NC(=O)C32CCC2)CC1 [Compound 32, 2,4-Difluoro-N-(7′-(((1-methylpiperidin-4-yl)methyl)amino)-2′-oxospiro[cyclobutane-1,3′-indolin]-5′-yl)benzenesulfonamide] | < 600 nM
CN1CCC(Oc2cc(NS(=O)(=O)c3ccc(Cl)cc3F)cc3c2NC(=O)C32CCC2)CC1 [Compound 130, 4-Chloro-2-fluoro-N-(7′-((1-methylpiperidin-4-yl)oxy)-2′-oxospiro[cyclobutane-1,3′-indolin]-5′-yl)benzenesulfonamide] | < 600 nM
COc1ccc(F)cc1S(=O)(=O)Nc1cc(OC2CCN(C)CC2)c2c(c1)C1(CCC1)C(=O)N2 [Compound 129, 5-Fluoro-2-methoxy-N-(7′-((1-methylpiperidin-4-yl)oxy)-2′-oxospiro[cyclobutane-1,3′-indolin]-5′-yl)benzenesulfonamide] | < 600 nM

Structure (SMILES) | IC50
O=C(NC1CCCNC1)c1cc(NS(=O)(=O)c2ccc(F)cc2F)cc2c1NC(=O)C21CCC1 (stereo not drawn) [Compound 65, 5′-(2,4-Difluorophenylsulfonamido)-2′-oxo-N-(piperidin-3-yl)spiro[cyclobutane-1,3′-indoline]-7′-carboxamide] | < 600 nM
COc1ccccc1S(=O)(=O)Nc1cc(C(C)c2ccccc2)c2c(c1)C1(CCC1)C(=O)N2 (single isomer, unassigned) [Compound 115, 2-Methoxy-N-(2′-oxo-7′-(1-phenylethyl)spiro [cyclobutane-1,3′-indolin]-5′-yl)benzenesulfonamide] | 600 to 1000 nM
COC(=O)c1ccc(S(=O)(=O)Nc2cc(C(=O)NC3CCN(C)CC3)c3c(c2)C2(CCC2)C(=O)N3)c(F)c1 [Compound 80, Methyl 3-fluoro-4-(N-(7′-((1-methylpiperidin-4-yl)carbamoyl)-2′-oxospiro[cyclobutane-1,3′-indolin]-5′-yl)sulfamoyl)benzoate] | > 1000 nM
O=C(O)c1cc(NS(=O)(=O)c2ccc(F)cc2F)cc2c1NC(=O)C21CCC1 [Compound 42, 5′-((2,4-difluorophenyl)sulfonamido)-2′-oxospiro[cyclobutane-1,3′-indoline]-7′-carboxylic acid] | 600 to 1000 nM
CCNCCOc1cc(NS(=O)(=O)c2ccccc2OC)cc2c1NC(=O)C21CCC1 [compound 205, N-(7′-(2-(ethylamino)ethoxy)-2′-oxospiro[cyclobutane-1,3′-indolin]-5′-yl)-2-methoxybenzenesulfonamide] | < 600 nM
O=C(Nc1cc(NS(=O)(=O)c2ccc(F)cc2F)cc2c1NC(=O)C21CCC1)C1CCOCC1 [Compound 46, N-(5′-(2,4-Difluorophenylsulfonamido)-2′-oxospiro[cyclobutane-1,3′-indolin]-7′-yl)tetrahydro-2H-pyran-4-carboxamide] | > 1000 nM
CCN(c1cc(OC2CCN(C)CC2)c2c(c1)C1(CCC1)C(=O)N2)S(=O)(=O)c1ccccc1OC [compound 179, N-ethyl-2-methoxy-N-(7′-((1-methylpiperidin-4-yl)oxy)-2′-oxospiro[cyclobutane-1,3′-indolin]-5′-yl)benzenesulfonamide] | > 1000 nM
COc1ccccc1S(=O)(=O)Nc1cc(OC2CCC(O)CC2)c2c(c1)C1(CCC1)C(=O)N2 (stereo not drawn) [Compound-208, N-(7′-((4-Hydroxycyclohexyl)oxy)-2′-oxospiro[cyclobutane-1,3′-indolin]-5′-yl)-2-methoxybenzenesulfonamide] | < 600 nM
COc1ccccc1S(=O)(=O)Nc1cc(B(O)O)c2c(c1)C1(CCC1)C(=O)N2 [Compound-217, (5′-((2-Methoxyphenyl)sulfonamido)-2′oxospiro[cyclobutane-1,3′-indolin]-7′-yl)boronic acid] | > 1000 nM
CN1CCCC(NC(=O)c2cc(NS(=O)(=O)c3ccc(F)cc3F)cc3c2NC(=O)C32CCC2)C1 (stereo not drawn) [Compound 58, 5′-(2,4-Difluorophenylsulfonamido)-N-(1-methylpiperidin-3-yl)-2′-oxospiro[cyclobutane-1,3′-indoline]-7′-carboxamide] | < 600 nM
COc1cccc(OC)c1S(=O)(=O)Nc1cc(OC2CCN(C)CC2)c2c(c1)C1(CCC1)C(=O)N2 [compound 186, 2,6-Dimethoxy-N-(7′-((1-methylpiperidin-4-yl)oxy)-2′-oxospiro[cyclobutane-1,3′-indolin]-5′-yl)benzenesulfonamide] | > 1000 nM
CNCCOc1cc(NS(=O)(=O)c2ccccc2OC)cc2c1NC(=O)C21CCC1 [compound 204, 2-Methoxy-N-(7′-(2-(methylamino)ethoxy)-2′-oxospiro[cyclobutane-1,3′-indolin]-5′-yl)benzenesulfonamide] | < 600 nM
COc1ccccc1S(=O)(=O)Nc1cc(OC2CCN(C)CC2)c2c(c1Br)C1(CCC1)C(=O)N2 [compound 216, N-(4′-bromo-7′-((1-methylpiperidin-4-yl)oxy)-2′-oxospiro[cyclobutane-1,3′-indolin]-5′-yl)-2-methoxybenzenesulfonamide] | > 1000 nM
O=C1Nc2c(OC3CCC(F)(F)CC3)cc(NS(=O)(=O)c3ccc(Cl)cc3F)cc2C12CCC2 [Compound 175, 4-Chloro-N-(7′-((4,4-difluorocyclohexyl)oxy)-2′-oxospiro [cyclobutane-1,3′-indolin]-5′-yl)-2-fluorobenzenesulfonamide] | 600 to 1000 nM
COc1ccccc1S(=O)(=O)Nc1cc(C(F)c2ccccc2)c2c(c1)C1(CCC1)C(=O)N2 (stereo not drawn) [Compound 125, N-(7′-(fluoro(phenyl)methyl)-2′-oxospiro[cyclobutane-1,3′-indolin]-5′-yl)-2-methoxybenzenesulfonamide] | < 600 nM
COc1ccc(S(=O)(=O)Nc2cc(C3CCN(C)CC3)c3c(c2)C2(CCC2)C(=O)N3)c(F)c1 [Compound 98, 2-Fluoro-4-methoxy-N-(7′-(1-methylpiperidin-4-yl)-2′-oxospiro-[cyclobutane-1,3′-indolin]-5′-yl)benzenesulfonamide] | < 600 nM
